Measurements: paper PMC9657236, “Anti-Leukemic Activity of Brassica-Derived Bioactive Compounds in HL-60 Myeloid Leukemia Cells” (International Journal of Molecular Sciences, 2022)
Read-outs that look alike come from different tables or passages of the source. Blank lines part the entries; values can stand above or below the molecule they belong to.

Assays:
[1] = system: NRF2/KEAP1 signaling pathway; experiment: RT-qPCR gene expression in undifferentiated HL-60 cells; type: cell-based, human; conditions: for expression levels of the NRF2-target genes HMOX, NQO1 and GSTA1 (in words): undifferentiated HL-60, RT-qPCR, dose-dependent
Source text: Total RNA was extracted from HL-60 cells using the GenElute Mammalian Total RNA Miniprep kit (Sigma) following the manufacturer’s instructions. RNA was eluted in RNAse-free water and checked for concentration and purity using the Nanodrop spectrophotometer system (ND-100 3.3. Nanodrop Technologies, Thermo Scientific, Madrid, Spain). Only samples with a ratio of Abs260/Abs280 between 1.8 and 2.1 were used for gene expression assays. cDNA was generated using a high-capacity RNA-to-cDNA kit (Thermo Fisher Scientific, Madrid, Spain) according to the manufacturer’s protocol. PCR amplification was carried out with PowerUp SYBR Green PCR Master Mix (Applied Biosystems, Waltham, MA, USA) using a Fast 7500 Real-Time instrument (Applied Biosystems, Waltham, MA, USA). The obtained data were analyzed using the 7500 SDS software (Applied Biosystems, Waltham, MA, USA). Actin beta (ACTB) and Glyceraldehyde 3-phosphate dehydrogenase (GAPDH) were used as reference genes. Both were considered suitable reference genes for gene expression normalization based on geNorm and/or Bestkeeper stability analysis. The gene-stability measures were performed using the RefFinder tool. Relative expression was calculated using the 2^−ΔΔCt method. All experiments were performed in triplicate and in three independent experiments.

HL-60 cells [2] = system: HL-60 cells; parameters: method as in PMID 15135302; conditions: apoptosis induction and cytodifferentiation; cited from earlier work
[3] = MTT viability assay in macrophage-like differentiated HL-60 cells; type: cell-based, human; conditions: human, macrophage-like differentiated HL-60 cells (PMA), differentiated HL-60 cells, 48 h, MTT, mean ± SD
Method: (§1) In order to test the specificity of the compounds as potential anti-tumor/cytotoxic agents with no collateral negative effects upon non-proliferative cells, the series of compounds were also assayed in an in vitro model of human macrophage-like cells derived from the same HL-60 cell line. To obtain these differentiated macrophage-like cells, HL-60 human leukemia cells growing at an exponential rate in suspension were exposed to a dose of 10 ng/mL of phorbol myristate acetate (PMA) (Sigma-Aldrich, Merck, Análisis Vínicos SL, Tomelloso, Spain) for 24 h in 96-well plates at a cell density of 0.2·10^6 HL-60 cells/well at 37 °C and 5% CO2. Cells were then incubated in culture media without PMA for another 24 h in the same culture conditions. After differentiation and resting periods, differentiated cells were treated for 48 h with compound solutions at different concentrations. Finally, MTT assays were performed as previously explained to measure cell viability. All experiments were performed in triplicate and in three independent experiments.

HL-60 cells [4] = experiment: MTT viability assay in proliferative HL-60 cells; type: cell-based, human; conditions: for IC50: proliferative HL-60 cells, mean ± SD, n = 3; for IC50 / effect on HL-60 cell viability (in words): MTT; for cytotoxic effect (in words): after 24 h; for effect on HL-60 cell viability (in words): doses up to 50 µM, 24, 48 and 72 h
Method: The human acute myeloid leukemia cell line HL-60 (ATCC® CCL-240™) was used to test the Brassica spp. phytochemicals. Maintenance of the cells was performed as previously described. Briefly, cells were grown in RPMI-1640 medium (Biowest) supplemented with 10% fetal bovine serum (FBS; Gibco, Thermo Fisher Scientific, Madrid, Spain) and 1% penicillin/streptomycin (Gibco, Thermo Fisher Scientific, Madrid, Spain), at 37 °C with 5% CO2 and 90% humidity. All in vitro assays were performed after passage number 5 and before passage number 20 with cells growing at an exponential ratio.
The anti-tumor activity of the compounds was evaluated by the MTT (3-(4,5-dimethylthiazol-2-yl)-2,5-diphenyltetrazolium bromide) viability assays as described previously. In brief, HL-60 cells were cultured at a concentration of 10^5 cells/mL (exponential growth rate) in 96-well plates containing 200 μL of cell culture medium and exposed to different doses of the tested compounds (0.5 μM, 1 μM, 5 μM, 10 μM, 25 μM, and 50 μM) for 24, 48, and 72 h. Then, MTT (Thermo Fisher) was added at a final concentration of 483 μM (0.2 mg/mL) and cells were incubated for 1 h at 37 °C and 5% CO2. Afterward, cells were lysed using an acidified isopropanol solubilization solution containing 0.04 M hydrochloric acid and 0.1% NP-40 detergent to release the formazan. Finally, the absorbance was measured at 550 nm using a SPECTROstar Nano (BMG Labtech, Germany) plate reader. The compound cytotoxicity was normalized to the control conditions (untreated with an equivalent dose of vehicle (DMSO) when applicable).

[5] = system: HL-60 differentiated cells; experiment: MTT viability assay in macrophage-like differentiated HL-60 cells; type: cell-based, human
Method: as §1

[6] = Homo sapiens, HL-60, higher dose (50 µM), 48 h, read-out: cell viability

IC50 (HL-60 cells [4]; Homo sapiens, 48 h treatment): 7 ± 1 µM | IC50 (HL-60 cells [4]; Homo sapiens, 72 h treatment): 21.9 ± 0.3 µM
SMILES: OC[C@H]1O[C@@H](Oc2cc3c(O)cc(O)cc3[o+]c2-c2ccc(O)c(O)c2)[C@H](O)[C@@H](O)[C@@H]1O [C3G, cyanidin-3-glucoside chloride]
expression levels of the NRF2-target genes HMOX, NQO1 and GSTA1 (in words) [1]: markedly induce | concentrations needed to inhibit the proliferative capacity of HL-60 cells (HL-60 cells [2]): > 100 µM | viability at 48 h, 10 µM [3]: 114 ± 24.4% | viability at 48 h, 25 µM [3]: 108 ± 7.4% | viability at 48 h, 50 µM [3]: 107 ± 12.8% | cell viability (HL-60 cells [4]; 10–50 µM doses, 24 h): around 40% | cell viability (HL-60 cells [4]; 25 and 50 µM, 48 h and 72 h): below 20%

IC50 (HL-60 cells [4]; Homo sapiens, 48 h treatment): 17.4 ± 0.7 µM | IC50 (HL-60 cells [4]; Homo sapiens, 72 h treatment): 28.9 ± 0.7 µM
SMILES: O=C(/C=C/c1ccc(O)c(O)c1)O[C@@H]1C[C@](O)(C(=O)O)C[C@@H](O)[C@H]1O [CQA, Chlorogenic acid]
expression levels of the NRF2-target genes HMOX, NQO1 and GSTA1 (in words) [1]: markedly induce | viability at 48 h, 10 µM [3]: 114 ± 19.2% | viability at 48 h, 25 µM [3]: 114 ± 20.6% | viability at 48 h, 50 µM [3]: 109 ± 11.8% | viability at 25 µM (HL-60 cells [4]; Homo sapiens, HL-60, 25 µM treatment, 48 and 72 h, read-out: cell viability): < 50% | viability at 50 µM (HL-60 cells [4]; [6]): 13% | viability at 50 µM (HL-60 cells [4]; Homo sapiens, HL-60, higher dose (50 µM), 72 h, read-out: cell viability): 11%

SMILES: c1ccc2c(Cc3c[nH]c4ccccc34)c[nH]c2c1 [DIM, 3,3′-Diindolmethane]
viability at 48 h, 10 µM [3]: 102 ± 22.7% | viability at 48 h, 25 µM [3]: 118 ± 27.2% | viability at 48 h, 50 µM [3]: 105 ± 13.5% | viability at 50 µM (HL-60 cells [4]; [6]): 25% | cytotoxic effect (in words) (HL-60 cells [4]): mild but significant cytotoxic effect | maximum cytotoxicity (HL-60 cells [4]; higher dose (50 µM), 48 h): 75%

SMILES: O=S(=O)(O)O/N=C(/Cc1c[nH]c2ccccc12)S[C@@H]1O[C@H](CO)[C@@H](O)[C@H](O)[C@H]1O [GBS, glucobrassicin]
effect on HL-60 cell viability (in words) (HL-60 cells [4]): did not show any effect

SMILES: CSCCCCC(=NOS(=O)(=O)O)SC1OC(CO)C(O)C(O)C1O (stereo not drawn) [GER, glucoerucin]
effect on HL-60 cell viability (in words) (HL-60 cells [4]): did not show any significant effects

SMILES: C[S+]([O-])CCCC/C(=N\OS(=O)(=O)O)S[C@@H]1O[C@H](CO)[C@@H](O)[C@H](O)[C@H]1O (stereo partly drawn) [GRA, glucoraphanin]
effect on HL-60 cell viability (in words) (HL-60 cells [4]): did not show any significant effects

SMILES: OCc1c[nH]c2ccccc12 [I3C, indole-3-carbinol]
viability at 48 h, 10 µM [3]: 93.6 ± 8% | viability at 48 h, 25 µM [3]: 99.5 ± 5.4% | viability at 48 h, 50 µM [3]: 95.1 ± 10.4% | viability at 50 µM (HL-60 cells [4]; Homo sapiens, HL-60, maximum dose (50 µM), 24 h, read-out: cell viability): 38% | cytotoxic effect (in words) (HL-60 cells [4]): mild but significant cytotoxic effect

IC50 (HL-60 cells [4]; Homo sapiens, HL-60, 48 h, 48 h treatment): 6 µM | IC50 (HL-60 cells [4]; Homo sapiens, HL-60, 72 h, 72 h treatment): 11.3 ± 0.5 µM | IC50 (HL-60 cells [4]; 48 h treatment): 5.9 ± 0.3 µM
SMILES: C[S+]([O-])CCCCN=C=S (stereo not drawn) [SFN, sulforaphane]
induction of the NRF2/KEAP1 signaling pathway (in words) ([1]; HL-60 cells): most potent NRF2 activator | expression levels of the NRF2-target genes HMOX, NQO1 and GSTA1 (in words) [1]: markedly induce | viability at 48 h, 10 µM [3]: 98.2 ± 12.1% | viability at 48 h, 25 µM [3]: 87.6 ± 6.8% | viability at 48 h, 50 µM [3]: 70 ± 17.5% | cytotoxicity in differentiated cells (in words) ([5]; 10 µM): did not cause significant cytotoxicity | cytotoxic effect in differentiated HL-60 cells (in words) ([5]; concentrations higher than 10 µM, 48 h): significant cytotoxic effect | cytotoxicity levels (HL-60 cells [4]; 25 µM and 50 µM, all time points (24, 48 and 72 h)): above 95% | viability at 10 µM (HL-60 cells [4]; Homo sapiens, HL-60, 10 µM dose, all time points (24, 48, 72 h)): < 50%

SMILES: COc1cc(/C=C/C(=O)O)cc(OC)c1O [SIA, sinapic acid]
effect on HL-60 cell viability (in words) (HL-60 cells [4]): did not have any effect whatsoever
